In test [1] the test system is K. pneumoniae 13GNB–429, K. pneumoniae 13GNB–550 and K. oxytoca 13GNB–582. In words: MIC, three resistant Klebsiella isolates. The class given is cell-based. The note with it: three resistant Klebsiella spp. isolates. On the procedure:
(§1) MICs for NCL259 and NCL265 (serial two-fold dilutions commencing at 256 µg/mL) were determined (in duplicate) in round bottom 96–well microtitre trays (Sarstedt 82.1582.001), using the broth micro-dilution method recommended by the Clinical and Laboratory Standards Institute (CLSI). We have shown previously that robenidine can chelate calcium ions from cation-adjusted Mueller-Hinton broth, which causes the loss of activity of robenidine. Therefore, LB broth was used in this study. Additionally, considering the low solubility of robenidine and its analogues in aqueous solutions, two-fold serial dilutions of stock solutions of these compounds were prepared in 100% DMSO [21]. The MIC for ampicillin against each isolate was determined for each test to serve as an internal quality control. The MICs of isolates were determined by visual reading and using an EnSpire Multimode Plate Reader 2300 at A600nm.

A further test relates to K. pneumoniae ATCC 4352. On the set-up: method as in PMID 30318716. The conditions noted are these: after 30 min treatment; cited from earlier work.
The subject of a further test is E. coli ATCC 25922. The conditions noted are these: cited from earlier work; for reduction in CFU (bactericidal): E. coli ATCC 25922, after 30 min treatment; for reduction of colony forming units: within 20 min at the MIC.
The next test concerns A. baumannii ATCC 12457. Briefly: MIC, broth micro-dilution. The class given is cell-based, Acinetobacter baumannii. The note with it: Acinetobacter baumannii, ATCC12457, read-out: MIC, Single Drug. The method, then:
(§2) A variety of Gram-negative reference strains (E. coli ATCC 25922, E. coli ATCC 10763, P. aeruginosa PAO1, P. aeruginosa ATCC 27853, A. baumannii ATCC 12457, A. baumannii ATCC 19606, K. pneumoniae ATCC 4352 and K. pneumoniae ATCC 33495) were used for initial screening and combination testing with PMB. The organisms were speciated using biochemical testing and MALDI-TOF mass spectrometry (Bruker, Preston, VIC, Australia). Activity testing of NCL259 and NCL265 was also carried out on 51 extraintestinal clinical E. coli isolates from companion animals, and 83 porcine and bovine enterotoxigenic E. coli (ETEC) isolates from the Australian Centre for Antimicrobial Resistance Ecology collection. E. coli wild-type (BW 25113) and its mutant BW 25113∆AcrB, in which the inner membrane component AcrB of the tripartite multidrug efflux system AcrA/AcrB/TolC has been deleted, were obtained from the bacterial collection held at Health and Biomedical Innovation, Clinical and Health Sciences, The University of South Australia. All isolates were cultured on sheep blood agar (SBA) plates at 37 °C for 18 h before being subcultured into Luria Bertaini (LB) (Oxoid, Scoresby, VIC, Australia) broth and grown to A600nm = 0.5 (equivalent to approx. 1.5 × 10^8 colony-forming units (CFU)/mL).
as §1
On the technique in general: In broth dilution the organism is exposed to a series of concentrations in liquid medium.

A further test concerns A. baumannii ATCC 19606. In words: MIC, broth micro-dilution. The class given is cell-based, Acinetobacter baumannii. The note with it: Acinetobacter baumannii, ATCC19606, read-out: MIC, Single Drug. On the procedure:
as §2, §1

Test [2] deals with human Gram-negative isolates comprising 19 E. aerogenes, 20 E. coli, 19 E. cloacae, 20 K. pneumoniae and 16 K. oxytoca. Also noted: method as in PMID 30318716. The conditions noted are these: panel of human Gram-negative isolates; cited from earlier work.
The test system of test [3] is K. oxytoca 13GNB–582. Briefly: Checkerboard assay with PAβN. The conditions noted are these: for concentration at the marked interaction: resazurin. The class given is cell-based. The method, then: (§3) MICs of NCL259 or NCL265 in the presence of the efflux pump inhibitor, PAβN were determined using a checkerboard assay. […] Briefly, a two-fold serial dilution of each antimicrobial solution was prepared in its appropriate solvent (e.g., DMSO for robenidine analogues and Milli-Q water for PAβN), and 1 μL of each dilution was added from wells 12 to 3 (12.8–0.25 μg/mL for robenidine analogues, and 32–2 μg/mL for PAβN). Thereafter, 89 μL of LB broth was added to each well followed by the addition of 10 μL of bacterial suspension (1–5 × 10^6 CFU/mL) to each well. In this manner, the final concentration of DMSO in each well was 1%. The plate was subsequently incubated at 37 °C for 24 h. The resazurin assay was used for assessment of drug susceptibility of NCL259 and NCL265 (Supplementary Table S1–S6). The same method was also used to test the MICs of NCL259 or NCL265 in the presence of PMB against a range of Gram-negative reference strains (E. coli ATCC 25922, E. coli ATCC 10763, P. aeruginosa PAO1, P. aeruginosa ATCC 27853, A. baumannii ATCC 12457, A. baumannii ATCC 19606, K. pneumoniae ATCC 4352 and K. pneumoniae ATCC 33495). Stock solutions were prepared prior to use (25.6–0.25 mg/mL for robenidine analogues; 12.8–0.25 mg/mL for PMB). The interaction of two antibiotics was calculated as the fractional inhibitory concentration index (FICI) using the following formula:(1) FICI=MICA in combination/MICA alone+MICB in combination/MICB alone where A is NCL259 or NCL265 and B is PAβN or PMB. According to FICI calculations, the interaction between two compounds were interpreted as follows: synergistic (FICI ≤ 0.5); additive or partially synergistic (0.5 < FICI ≤ 1); indifferent (1 < FICI ≤ 4); and antagonistic (FICI > 4), as described previously. The dose reduction index (DRI) was used to describe the difference between the effective doses of NCL259 or NCL265 in combination with PMB or PAβN in comparison to their individual doses, using the following formula:(2) DRI=MICA alone/MICA in combination
Evaluation of DRI is important clinically because it can allow the dose of a potentially toxic drug to be lowered in combination with another compound without reducing the drug’s efficacy. A DRI higher than 1 is viewed as beneficial.
For orientation: The colour change of resazurin is a common sign of viable cells or microbes.

In test [4] the test system is K. oxytoca 13GNB–582. Briefly: MIC, broth micro-dilution. The note with it: Klebsiella oxytoca, read-out: MIC, Single Drug. The class given is cell-based. The method, then:
as §1, §3

For another test, the system named is K. pneumoniae 13GNB–550. In words: MIC, broth micro-dilution. The class given is cell-based. The conditions noted are these: Klebsiella pneumoniae, read-out: MIC, Single Drug. The method, then: as §1, §3
The next test has as its system K. pneumoniae 13GNB–429. In words: MIC, broth micro-dilution. The class given is cell-based. The conditions noted are these: Klebsiella pneumoniae, read-out: MIC, Single Drug. On the procedure:
as §1, §3

Test [5] has as its system Companion animal ExPEC (n = 51). Briefly: MIC, broth micro-dilution, clinical isolates. The class given is cell-based, Escherichia coli. The note with it: for MIC range: Companion animal ExPEC (n = 51); for MIC50 / MIC90: Escherichia coli. The method, then:
as §2, §1

Where [6] appears, read: K. oxytoca 13GNB–582, PAβN + NCL259.
Setting [7] is: Table S3, NCL259 + PAβN, replicate 1.
Where [8] appears, read: Table S3, NCL259 + PAβN, replicate 2.
[9] abbreviates: K. oxytoca 13GNB–582, PAβN + NCL265.
Setting [10] is: Table S6, NCL265 + PAβN, replicate 1.
Setting [11] is: Table S6, NCL265 + PAβN, replicate 2.

Read-outs that look alike come from different tables or passages of the source. Where only a bound is given, the exact number is not on record here.

The MIC is the lowest concentration that inhibits growth of the organism. The MIC50 is an inhibitory concentration at the 50% level, which refers to growth in some studies and to a panel of isolates in others. As usually defined, the MIC90 is the lowest concentration that inhibits either 90% of growth or 90% of the strains tested, depending on the study.

Turning to `[H]/N=C(\N)NN=C(CC1CCCCC1)c1ccc(Cl)cc1` [NCL259, (E)-2-(1-(4-chlorophenyl)-2-cyclohexylethylidene)hydrazine-1-carboximidamide], the MIC is more than 256 µg/mL in test [1]; more than 256 µg/mL in test [1] (read-out: MIC); 8 µg/mL in the test with A. baumannii ATCC 12457; 8 µg/mL with A. baumannii ATCC 19606; more than 256 µg/mL in the test with K. oxytoca 13GNB–582 [4]; more than 256 µg/mL in the test on K. pneumoniae 13GNB–550. The MIC in the test on K. pneumoniae 13GNB–429 is more than 256 µg/mL. The “reduction in CFU (bactericidal)” value in the test with K. pneumoniae ATCC 4352 and with E. coli ATCC 25922 was more than 5 log 10 in each case. Besides, the “reduction of colony forming units” value in the test on E. coli ATCC 25922 is reported as 100%. Besides, the figures for the MIC range in [2] and in test [5] were 2 to 64 µg/mL and 16 to 64 µg/mL, respectively. In addition, the “DRI PAβN:NCL259” value in the test on K. oxytoca 13GNB–582 [3] (K. oxytoca 13GNB–582) amounted to 32. Besides, the “Combination Effect” value with K. oxytoca 13GNB–582 [3] (setting [6]) is recorded as “Synergism (synergistic, FICI ≤ 0.5)”. Besides, the FICI in the test on K. oxytoca 13GNB–582 [3] (setting [6]) turned out to be 0.281. Moreover, the “MIC, Combination” value in the test with K. oxytoca 13GNB–582 [3] (setting [6]) was determined as 8 µg/mL. The interaction result with K. oxytoca 13GNB–582 [3] (setting [7]) and in the test with K. oxytoca 13GNB–582 [3] (setting [8]) was “synergistic (synergistic (FICI ≤ 0.5))” each time. Besides, the “concentration at the marked interaction” value in the test with K. oxytoca 13GNB–582 [3] (setting [7]) and with K. oxytoca 13GNB–582 [3] (setting [8]) was 8 µg/mL throughout. Besides, the MIC50 in test [5] amounted to 32 µg/mL. For the same compound, the MIC90 in test [5] came out at 32 µg/mL.
Consider `[H]/N=C(\N)NN=C(CCCCCC)c1ccc(Cl)cc1` [NCL265, (E)-2-(1-(4-chlorophenyl)heptylidene)hydrazine-1-carboximidamide], for which the MIC in test [1] was more than 256 µg/mL; in test [1] (read-out: MIC), more than 256 µg/mL; with A. baumannii ATCC 12457, 2 µg/mL; in the test with A. baumannii ATCC 19606 it was 2 µg/mL; with K. oxytoca 13GNB–582 [4], more than 256 µg/mL; in the test on K. pneumoniae 13GNB–550, more than 256 µg/mL. Moreover, the MIC in the test on K. pneumoniae 13GNB–429 is more than 256 µg/mL. The “reduction in CFU (bactericidal)” value in the test with K. pneumoniae ATCC 4352 and in the test with E. coli ATCC 25922 was more than 5 log 10 in each case. The “reduction of colony forming units” value with E. coli ATCC 25922 was 100%. In addition, the MIC range in test [2] was 2 to 64 µg/mL; in test [5], 4 to 16 µg/mL. The “DRI PAβN:NCL265” value in the test on K. oxytoca 13GNB–582 [3] (K. oxytoca 13GNB–582) was determined as 128. The “Combination Effect” value in the test with K. oxytoca 13GNB–582 [3] (setting [9]) is given as “Additivity (additive or partially synergistic, 0.5 < FICI ≤ 1)”. In addition, the FICI in the test with K. oxytoca 13GNB–582 [3] (setting [9]) came to 0.508. In the test on K. oxytoca 13GNB–582 [3] (setting [9]), the “MIC, Combination” value is 2 µg/mL. The interaction result in the test with K. oxytoca 13GNB–582 [3] (setting [10]) and in the test on K. oxytoca 13GNB–582 [3] (setting [11]) was “synergistic (synergistic (FICI ≤ 0.5))” in each case. Moreover, the entries for the “concentration at the marked interaction” value with K. oxytoca 13GNB–582 [3] (setting [10]) and in the test on K. oxytoca 13GNB–582 [3] (setting [11]) were 4 µg/mL and 8 µg/mL, respectively. In addition, in [5], the MIC50 turned out to be 32 µg/mL. Besides, the MIC90 in [5] was found to be 32 µg/mL.

The record behind these values is publication PMC9598656, “In Vitro Activity of Robenidine Analogues NCL259 and NCL265 against Gram-Negative Pathogens” (Antibiotics, 2022).
